Here are results for 17 compounds from patent publication US20120225062A1 (priority 2011, published 2012).

One test deals with Pim 1 (Homo sapiens, UniProt P11309). Briefly: Pim 1 AlphaScreen assay (high ATP). In general terms: In Alpha technology, singlet oxygen from a donor bead excites a nearby acceptor bead.
Another test addresses Pim 2 (Homo sapiens, UniProt Q9P1W9). Put plainly: Pim 2 AlphaScreen assay (high ATP).
In another test the target is Pim 3 (Homo sapiens, UniProt Q86V86). Briefly: Pim 3 AlphaScreen assay (high ATP).
The subject of test [1] is KMS11 (human myeloma cell line). Briefly: Cell Proliferation Assay (CellTiter-Glo, 3 days). To be noted: KMS-11, 72 h, KMS11-luc cells. In kind it is cell-based. As for the experimental part: KMS11 (human myeloma cell line), were cultured in IMDM supplemented with 10% FBS, sodium pyruvate and antibiotics. Cells were plated in the same medium at a density of 2000 cells per well into 96 well tissue culture plates, with outside wells vacant, on the day of assay.
Test compounds supplied in DMSO were diluted into DMSO at 500 times the desired final concentrations before dilution into culture media to 2 times final concentrations. Equal volumes of 2× compounds were added to the cells in 96 well plates and incubated at 37° C. for 3 days.
After 3 days plates were equilibrated to room temperature and equal volume of CellTiter-Glow Reagent (Promega) was added to the culture wells. The plates were agitated briefly and luminescent signal was measured with luminometer.
Using the procedures of Cell Proliferation Assay, the EC50 concentrations of compounds of the examples were determined in KMS11 cells as shown in Table 4.
(In general: ATP-based viability assays read luminescence as a measure of living cells.)

Chain of Pim 1 (P11309 whole entry): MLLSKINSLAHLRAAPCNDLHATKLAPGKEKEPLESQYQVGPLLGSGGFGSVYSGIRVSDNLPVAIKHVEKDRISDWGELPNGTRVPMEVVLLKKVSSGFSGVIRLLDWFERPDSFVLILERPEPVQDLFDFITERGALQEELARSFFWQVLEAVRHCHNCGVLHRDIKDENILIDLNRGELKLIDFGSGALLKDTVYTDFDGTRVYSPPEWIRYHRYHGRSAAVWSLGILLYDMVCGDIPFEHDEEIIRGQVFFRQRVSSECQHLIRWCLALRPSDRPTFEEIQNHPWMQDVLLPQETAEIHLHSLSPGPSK
Chain of Pim 2 (Q9P1W9 whole entry): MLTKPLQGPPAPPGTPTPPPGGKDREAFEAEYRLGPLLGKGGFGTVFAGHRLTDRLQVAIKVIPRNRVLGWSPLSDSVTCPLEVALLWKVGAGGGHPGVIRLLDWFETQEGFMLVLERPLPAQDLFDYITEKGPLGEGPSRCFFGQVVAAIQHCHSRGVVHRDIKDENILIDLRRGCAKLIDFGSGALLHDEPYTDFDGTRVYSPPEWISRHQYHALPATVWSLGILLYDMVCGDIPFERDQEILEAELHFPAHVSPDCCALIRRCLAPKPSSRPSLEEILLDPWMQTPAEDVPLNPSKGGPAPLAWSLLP
Description for Pim 1: (§1) The activity of Pim 1, Pim 2, & Pim 3 is measured using a homogeneous bead based system quantifying the amount of phosphorylated peptide substrate resulting from kinase-catalyzed phosphoryl transfer to a peptide substrate. Compounds to be tested are dissolved in 100% DMSO and directly distributed to a white 384-well plate at 0.25 μl per well. […] This is followed by the addition of 5 μl/well of Pim 1, Pim 2 or Pim 3 kinase in assay buffer (concentrations described below). Final assay concentrations (described below) are in 2.5% DMSO. The reactions are performed for ˜2 hours, then stopped by the addition of 10 μl of 0.75 μg/ml anti-phospho Ser/Thr antibody (Cell Signaling), 10 μg/ml Protein A AlphaScreen beads (Perkin Elmer), and 10 μg/ml streptavidin coated AlphaScreen beads in stop/detection buffer (50 mM EDTA, 95 mM Tris, pH=7.5, 0.01% Tween-20). The stopped reactions are incubated overnight in the dark. The phosphorylated peptide is detected via an oxygen anion initiated chemiluminescence/fluorescence cascade using the Envision plate reader (Perkin Elmer).
Description for Pim 3: as §1

As to `C[C@@H]1C[C@H](N)C[C@H](c2ccncc2NC(=O)c2ccc(F)c(-c3c(F)cc(OC[C@H](O)CO)cc3F)n2)C1` [Example 2, N-(4-((1R,3S,5S)-3-amino-5-methylcyclohexyl)pyridin-3-yl)-6-(4-((R)-2,3-dihydroxypropoxy)-2,6-difluorophenyl)-5-fluoropicolinamide], the IC50 on Pim 1 is 0.01 nM; against Pim 2 it was 2.99 nM; at Pim 3, 0.57 nM.

In turn, `C[C@H]1CN(c2ccncc2NC(=O)c2ccc(F)c(-c3c(F)ccc(OCCO)c3F)n2)C[C@@H](N)[C@@H]1O` [Example 31, N-(4-((3R,4R,5S)-3-amino-4-hydroxy-5-methylpiperidin-1-yl)pyridin-3-yl)-6-(2,6-difluoro-3-(2-hydroxyethoxy)phenyl)-5-fluoropicolinamide] came in with an EC50 in test [1] of 12 nM. This compound also displayed an IC50 against Pim 2 of 1.36 nM.

As to `C[C@@H]1C[C@H](N)C[C@H](c2ccncc2NC(=O)c2ccc(F)c(-c3c(F)cc(C4(O)COC4)cc3F)n2)C1` [Example 55, N-(4-((1R,3S,5S)-3-amino-5-methylcyclohexyl)pyridin-3-yl)-6-(2,6-difluoro-4-(3-hydroxyoxetan-3-yl)phenyl)-5-fluoropicolinamide], in test [1], the EC50 came to 24 nM. For the same compound, the values for the IC50 on Pim 1 and against Pim 2 were 0.02 nM and 2.42 nM, respectively.

In turn, `C[C@H]1C[C@@H](c2ccncc2NC(=O)c2nc(-c3c(F)cc(OC4CCOCC4)cc3F)c(F)cc2N)C[C@@H](N)[C@@H]1O` [Example 87, 3-amino-N-(4-((1R,3R,4R,5S)-3-amino-4-hydroxy-5-methylcyclohexyl)pyridin-3-yl)-6-(2,6-difluoro-4-(tetrahydro-2H-pyran-4-yloxy)phenyl)-5-fluoropicolinamide] displayed an EC50 in test [1] of 31 nM. In addition, at Pim 2, the IC50 was 1.46 nM.

In the case of `CC(C)[C@@H]1C[C@H](N)C[C@H](c2ccncc2NC(=O)c2ccc(F)c(-c3c(F)cc(OC4CCOCC4)cc3F)n2)C1` [Example 110, N-(4-((1R,3S,5S)-3-amino-5-isopropylcyclohexyl)pyridin-3-yl)-6-(2,6-difluoro-4-(tetrahydro-2H-pyran-4-yloxy)phenyl)-5-fluoropicolinamide], the results for the IC50 against Pim 1, against Pim 2 and against Pim 3 were 0.01 nM, 0.95 nM and 0.25 nM, respectively.

Regarding `CC(C)[C@@H]1C[C@H](N)C[C@H](c2ccncc2NC(=O)c2ccc(F)c(-c3c(F)cc(C4(O)COC4)cc3F)n2)C1` [Example 111, N-(4-((1R,3S,5S)-3-amino-5-isopropylcyclohexyl)pyridin-3-yl)-6-(2,6-difluoro-4-(3-hydroxyoxetan-3-yl)phenyl)-5-fluoropicolinamide], the IC50 on Pim 1 was found to be 0.01 nM; against Pim 2, 0.76 nM; on Pim 3, 0.61 nM.

For the compound `COC1(c2cc(F)c(-c3nc(C(=O)Nc4cnccc4N4C[C@@H](N)[C@H](O)[C@@H](C)C4)c(N)cc3F)c(F)c2)COC1` [Example 112, 3-amino-N-(4-((3R,4R,5S)-3-amino-4-hydroxy-5-methylpiperidin-1-yl)pyridin-3-yl)-6-(2,6-difluoro-4-(3-methoxyoxetan-3-yl)phenyl)-5-fluoropicolinamide], the values for the IC50 on Pim 1, against Pim 2 and at Pim 3 were 0.01 nM, 0.48 nM and 0.21 nM, respectively.

Turning to `COC(C)(C)c1cc(F)c(-c2nc(C(=O)Nc3cnccc3[C@@H]3C[C@H](C)C[C@H](N)C3)c(N)cc2F)c(F)c1` [Example 113, 3-amino-N-(4-((1R,3S,5S)-3-amino-5-methylcyclohexyl)pyridin-3-yl)-6-(2,6-difluoro-4-(2-methoxypropan-2-yl)phenyl)-5-fluoropicolinamide], the values for the IC50 against Pim 1, against Pim 2 and at Pim 3 were 0.02 nM, 1.51 nM and 0.73 nM, respectively.

As to `COC(C)(C)c1cc(F)c(-c2nc(C(=O)Nc3cnccc3[C@H]3C[C@@H](N)[C@H](O)[C@@H](C)C3)c(N)cc2F)c(F)c1` [Example 114, 3-amino-N-(4-((1R,3R,4R,5S)-3-amino-4-hydroxy-5-methylcyclohexyl)pyridin-3-yl)-6-(2,6-difluoro-4-(2-methoxypropan-2-yl)phenyl)-5-fluoropicolinamide], the IC50 amounted to 0.04 nM on Pim 1, 1.37 nM on Pim 2 and 1.29 nM against Pim 3.

As to `C[C@H]1CN(c2ccncc2NC(=O)c2nc(-c3c(F)cc(OC4CCOCC4)cc3F)c(F)cc2N)C[C@@H](N)[C@@H]1O` [Example 115, 3-amino-N-(4-((3R,4R,5S)-3-amino-4-hydroxy-5-methylpiperidin-1-yl)pyridin-3-yl)-6-(2,6-difluoro-4-(tetrahydro-2H-pyran-4-yloxy)phenyl)-5-fluoropicolinamide], the figures for the IC50 at Pim 1, on Pim 2 and against Pim 3 were 0.01 nM, 0.66 nM and 0.12 nM, respectively.

In test [1], `C[C@@H]1C[C@H](N)C[C@H](c2ccncc2NC(=O)c2ccc(F)c(-c3c(F)cc(CN4CCCC4=O)cc3F)n2)C1` [Example 144, N-(4-((1R,3S,5S)-3-amino-5-methylcyclohexyl)pyridin-3-yl)-6-(2,6-difluoro-4-((2-oxopyrrolidin-1-yl)methyl)phenyl)-5-fluoropicolinamide] registered an EC50 of 55 nM. Also, inhibition against Pim 2 was half-maximal at 2.61 nM (IC50).

In test [1], `C[C@@H]1C[C@H](N)C[C@H](c2ccncc2NC(=O)c2ccc(F)c(-c3c(F)cc(C4=CCCC4)cc3F)n2)C1` [Example 160] yielded an EC50 of 285 nM. Besides, the IC50 against Pim 1 amounted to 0.02 nM; against Pim 2, 3.74 nM.

In the case of `CC(C)[C@@H]1C[C@H](N)C[C@H](c2ccncc2NC(=O)c2ccc(F)c(-c3c(F)cc(OC4COC4)cc3F)n2)C1` [Example 183, N-(4-((1R,3S,5S)-3-amino-5-isopropylcyclohexyl)pyridin-3-yl)-6-(2,6-difluoro-4-(oxetan-3-yloxy)phenyl)-5-fluoropicolinamide], in test [1], it took 158 nM to reach a half-maximal effect (EC50). This compound registered a concentration for half-maximal inhibition (IC50) on Pim 2 of 0.93 nM.

For the compound `CSc1cc(F)c(-c2nc(C(=O)Nc3cnccc3[C@@H]3C[C@H](C)C[C@H](N)C3)ccc2F)c(F)c1` [Example 223, N-(4-((1R,3S,5S)-3-amino-5-methylcyclohexyl)pyridin-3-yl)-6-(2,6-difluoro-4-(methylthio)phenyl)-5-fluoropicolinamide], the EC50 in test [1] was found to be 169 nM.

Turning to `C[C@@H]1C[C@H](N)C[C@H](c2ccncc2NC(=O)c2ccc(F)c(-c3c(F)cc(CO)cc3F)n2)C1` [Example 224, N-(4-((1R,3S,5S)-3-amino-5-methylcyclohexyl)pyridin-3-yl)-6-(2,6-difluoro-4-(hydroxymethyl)phenyl)-5-fluoropicolinamide], the EC50 in test [1] was 64 nM.

Consider `CCc1cc(F)c(-c2nc(C(=O)Nc3cnccc3[C@@H]3C[C@H](C)C[C@H](N)C3)ccc2F)c(F)c1` [Example 230, N-(4-((1R,3S,5S)-3-amino-5-methylcyclohexyl)pyridin-3-yl)-6-(4-ethyl-2,6-difluorophenyl)-5-fluoropicolinamide], for which, in test [1], the EC50 was 62 nM.

Compound `C[C@@H]1C[C@H](N)C[C@H](c2ccncc2NC(=O)c2ccc(F)c(-c3c(F)cc(C(C)(C)O)cc3F)n2)C1` [Example 236, N-(4-((1R,3S,5S)-3-amino-5-methylcyclohexyl)pyridin-3-yl)-6-(2,6-difluoro-4-(2-hydroxypropan-2-yl)phenyl)-5-fluoropicolinamide] gave an EC50 in test [1] of 13 nM.

As a reminder, the IC50 is the point on the concentration scale where inhibition reaches its midpoint. A high value points to a need for much substance. Broadly, the EC50 is the concentration giving half of the maximal effect.
